Laboratory results taken from ChEMBL document CHEMBL1201862, “PubChem BioAssay data set” (2004).
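Following 48 hours of exposure in 96-well plates, responses at five concentrations were used to interpolate endpoints linearly. Here, GI50 denotes the concentration required for 50% inhibition of growth.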 Active and inactive are the calls of the source. Cut-off read from the data, not from the text of the source: active = GI50 up to about 1.1 µM and inactive = higher.

Legend:
Assay in all cases: NCI tumour cell line growth inhibition, 48 h
786-0 = system: 786-0
BT-549 = system: BT-549
HCC 2998 = system: HCC 2998
HCT-116 = system: HCT-116
HCT-15 = system: HCT-15
HL-60 = system: HL-60
HOP-92 = system: HOP-92
M14 = system: M14
MOLT-4 = system: MOLT-4
Malme-3M = system: Malme-3M
OVCAR-3 = system: OVCAR-3
OVCAR-4 = system: OVCAR-4
PC-3 = system: PC-3
RPMI-8226 = system: RPMI-8226
SF-295 = system: SF-295
SF-539 = system: SF-539
SK-MEL-5 = system: SK-MEL-5
SW-620 = system: SW-620
TK-10 = system: TK-10

Measured: GI50

O=c1oc2ccc(Cl)cc2cc1C1=CSC2=NCCN12
inactive: 786-0 18.4 µM | BT-549 19.7 µM | HCC 2998 14 µM | HCT-116 17.6 µM | HL-60 21.7 µM | HOP-92 22.1 µM | M14 31.6 µM | MOLT-4 17.9 µM | Malme-3M 31.1 µM | OVCAR-3 18.4 µM | OVCAR-4 23.6 µM | PC-3 21.7 µM | RPMI-8226 20.4 µM | SF-295 23.3 µM | SF-539 28.6 µM | SK-MEL-5 19.1 µM | SW-620 24.6 µM | TK-10 27.1 µM
18.9 µM: HCT-15

COc1ccc(N2C(=O)C3c4[nH]c5ccc([N+](=O)[O-])cc5c4C4CCC(C(C)(C)C)CC4C3C2=O)cc1 (stereo not given)
inactive: 786-0 11.4 µM | BT-549 14.5 µM | HCC 2998 10.9 µM | HCT-116 3.24 µM | HL-60 8.02 µM | HOP-92 6.9 µM | M14 14.8 µM | MOLT-4 14.3 µM | Malme-3M 28.4 µM | OVCAR-3 7.29 µM | OVCAR-4 14.8 µM | PC-3 5.21 µM | RPMI-8226 13.3 µM | SF-295 13.7 µM | SF-539 15.2 µM | SK-MEL-5 12.4 µM | SW-620 37.1 µM | TK-10 25.2 µM
14.4 µM: HCT-15

NC(=O)NC(=O)c1cccc(NC(=O)CCl)c1
active: 786-0 1.06 µM | HCC 2998 0.764 µM | HCT-116 0.392 µM | HL-60 0.569 µM | MOLT-4 1.11 µM | OVCAR-3 0.223 µM | PC-3 1.08 µM | SF-539 0.655 µM | SK-MEL-5 0.71 µM | SW-620 0.621 µM
inactive: BT-549 1.41 µM | HOP-92 4.34 µM | Malme-3M 5.22 µM | OVCAR-4 2.19 µM | RPMI-8226 1.18 µM | SF-295 2.79 µM | TK-10 1.35 µM
0.948 µM: HCT-15

CC(=O)OCC1OC(OC2CC3C(C)(C)C(=O)CC[C@]3(C)C3CC[C@]45C[C@]4(CCC5[C@@H](C)CC(O)C(O)C(C)(C)O)[C@]23C)C(O)C(O)C1O (stereo not given in full)
17.6 µM: HCT-15
inactive: 786-0 13.6 µM | BT-549 12.9 µM | HCC 2998 10 µM | HCT-116 7.1 µM | HL-60 2.25 µM | HOP-92 3.18 µM | M14 10.3 µM | MOLT-4 3.71 µM | Malme-3M 14.1 µM | OVCAR-3 12.7 µM | OVCAR-4 12.7 µM | PC-3 9.82 µM | RPMI-8226 3.56 µM | SF-295 14.1 µM | SF-539 15.3 µM | SK-MEL-5 7.66 µM | SW-620 13.2 µM | TK-10 14.6 µM

Nc1cc(O)c2c(c1O)C(=O)C=CC2=O
inactive: 786-0 7.89 µM | BT-549 16.7 µM | HCC 2998 9.31 µM | HCT-116 5.19 µM | HL-60 2.21 µM | HOP-92 14.8 µM | M14 7.76 µM | MOLT-4 4.66 µM | Malme-3M 2.67 µM | OVCAR-3 2.64 µM | OVCAR-4 10.8 µM | PC-3 19.5 µM | RPMI-8226 5.2 µM | SF-295 17.3 µM | SF-539 18.9 µM | SK-MEL-5 8.26 µM | SW-620 4.33 µM | TK-10 26.6 µM
7.41 µM: HCT-15

COc1cc(C2SCC(=O)N2c2ccc(-c3ccc(-n4c(-c5ccccc5)nc5ccccc5c4=O)cc3)cc2)ccc1O (stereo not given)
25.8 µM: HCT-15
inactive: 786-0 29.6 µM | BT-549 > 100 µM | HCC 2998 82.2 µM | HCT-116 47.8 µM | HL-60 65.3 µM | HOP-92 30.9 µM | M14 > 100 µM | MOLT-4 37 µM | Malme-3M > 100 µM | OVCAR-3 61.5 µM | OVCAR-4 37.9 µM | PC-3 40.4 µM | RPMI-8226 > 100 µM | SF-295 > 100 µM | SF-539 54.7 µM | SK-MEL-5 26.7 µM | SW-620 82 µM | TK-10 > 100 µM

C=CCN1C(=O)CC2[C@@H]3CCc4cc(O)ccc4C3CC[C@]2(C)C1=O (stereo not given in full)
inactive: 786-0 > 10 µM | BT-549 > 10 µM | HCC 2998 > 10 µM | HCT-116 > 10 µM | HL-60 > 10 µM | HOP-92 > 10 µM | M14 > 10 µM | MOLT-4 > 10 µM | Malme-3M > 10 µM | OVCAR-3 > 10 µM | OVCAR-4 > 10 µM | PC-3 > 10 µM | RPMI-8226 > 10 µM | SF-295 > 10 µM | SF-539 > 10 µM | SK-MEL-5 > 10 µM | SW-620 > 10 µM | TK-10 > 10 µM
> 10 µM: HCT-15

Cc1cccc2c1C(=O)C(C1OC(=O)c3ccccc31)C2 (stereo not given)
> 100 µM: HCT-15
inactive: 786-0 > 100 µM | BT-549 > 100 µM | HCC 2998 > 100 µM | HCT-116 90.6 µM | HL-60 > 100 µM | HOP-92 > 100 µM | MOLT-4 > 100 µM | Malme-3M > 100 µM | OVCAR-3 > 100 µM | OVCAR-4 > 100 µM | PC-3 > 100 µM | RPMI-8226 92.5 µM | SF-295 > 100 µM | SF-539 > 100 µM | SK-MEL-5 95.5 µM | SW-620 > 100 µM | TK-10 > 100 µM

O=c1cccc(C2CC(CO)C3CCCCN3C2)[nH]1 (stereo not given)
inactive: 786-0 > 100 µM | BT-549 > 100 µM | HCC 2998 > 100 µM | HCT-116 > 100 µM | HL-60 > 100 µM | HOP-92 > 100 µM | M14 > 100 µM | MOLT-4 > 100 µM | OVCAR-3 > 100 µM | OVCAR-4 > 100 µM | PC-3 > 100 µM | RPMI-8226 > 100 µM | SF-295 > 100 µM | SF-539 > 100 µM | SK-MEL-5 > 100 µM | SW-620 > 100 µM | TK-10 > 100 µM
> 100 µM: HCT-15

CC1OC(OC2C[C@](O)(C(=O)CBr)Cc3c(O)c4c(c(O)c32)C(=O)c2ccccc2C4=O)C(F)C(O)C1O (stereo not given in full)
5.86 µM: HCT-15
inactive: 786-0 3.66 µM | BT-549 24.7 µM | HCC 2998 36.3 µM | HCT-116 5.83 µM | HOP-92 4.21 µM | M14 7.14 µM | Malme-3M 3.66 µM | OVCAR-3 13.9 µM | OVCAR-4 23.6 µM | PC-3 13.4 µM | RPMI-8226 1.46 µM | SF-295 3.54 µM | SF-539 4.54 µM | SK-MEL-5 8.95 µM | SW-620 2.69 µM | TK-10 20.3 µM
active: HL-60 0.838 µM

O=C(O)c1c(-c2c3ccc(=O)cc-3oc3cc(O)ccc23)cc2ccccc2c1-c1ccccc1
> 100 µM: HCT-15
inactive: 786-0 > 100 µM | BT-549 > 100 µM | HCC 2998 > 34 µM | HCT-116 > 100 µM | HL-60 > 74.6 µM | HOP-92 > 100 µM | M14 > 100 µM | MOLT-4 4.85 µM | Malme-3M > 100 µM | OVCAR-3 > 100 µM | OVCAR-4 > 100 µM | PC-3 > 100 µM | RPMI-8226 > 100 µM | SF-295 > 100 µM | SF-539 > 100 µM | SK-MEL-5 > 100 µM | SW-620 > 100 µM | TK-10 > 36.6 µM

CCOC(=O)/C(C(=O)Nc1cccc(C(F)(F)F)c1)=C(/N)N1CCOCC1
inactive: 786-0 > 100 µM | BT-549 > 100 µM | HCC 2998 > 100 µM | HCT-116 > 100 µM | HL-60 > 100 µM | HOP-92 > 100 µM | M14 > 100 µM | MOLT-4 > 100 µM | Malme-3M > 100 µM | OVCAR-3 > 100 µM | OVCAR-4 > 100 µM | PC-3 > 100 µM | RPMI-8226 > 100 µM | SF-295 > 100 µM | SF-539 > 100 µM | SW-620 > 100 µM | TK-10 > 100 µM
> 100 µM: HCT-15

O=C(NC(Nc1ccc(F)cc1)(C(F)(F)F)C(F)(F)F)C(C(F)(F)F)C(F)(F)F
inactive: 786-0 > 54.1 µM | BT-549 18.7 µM | HCC 2998 12 µM | HCT-116 4.2 µM | HOP-92 51.3 µM | MOLT-4 4.86 µM | Malme-3M 48 µM | OVCAR-3 44.3 µM | OVCAR-4 5.52 µM | PC-3 4.91 µM | RPMI-8226 8.11 µM | SF-295 3.01 µM | SF-539 21.4 µM | SK-MEL-5 1.43 µM | SW-620 1.65 µM | TK-10 > 24.9 µM
active: HL-60 1.04 µM | M14 0.402 µM
2.13 µM: HCT-15

CCCCCCCCCCCCCCCCCc1cccc(OCOCCOC)c1C(=O)O
inactive: 786-0 18.6 µM | BT-549 16.9 µM | HCC 2998 19.1 µM | HCT-116 19.4 µM | HL-60 20.9 µM | HOP-92 18.9 µM | M14 16.5 µM | MOLT-4 21.5 µM | Malme-3M 10.2 µM | OVCAR-3 16.9 µM | OVCAR-4 19.5 µM | PC-3 17.1 µM | RPMI-8226 24.3 µM | SF-295 18.1 µM | SF-539 16.2 µM | SK-MEL-5 20 µM | SW-620 20.3 µM | TK-10 18.9 µM
19.3 µM: HCT-15

CC(=O)n1nc(-c2nc3ccccc3nc2Cl)cc1Cl
inactive: 786-0 23.6 µM | BT-549 5.89 µM | HCC 2998 36.6 µM | HCT-116 3.78 µM | HL-60 8.02 µM | HOP-92 > 69.8 µM | M14 4.43 µM | MOLT-4 1.9 µM | Malme-3M 23.4 µM | OVCAR-3 19.8 µM | OVCAR-4 19.5 µM | PC-3 30.9 µM | RPMI-8226 13.6 µM | SF-295 29.6 µM | SF-539 2.88 µM | SK-MEL-5 4.68 µM | SW-620 2.88 µM | TK-10 37.4 µM
11.2 µM: HCT-15
